Experimental data reported in patent publication US12023333B2, “Phenyl-sulfamoyl.benzoyc acids as ERAP1 modulators” (GREY WOLF THERAPEUTICS LIMITED, priority 2019, dated 2024).
pIC50: −log10 of the molar value.

Target: T1, Purified ERAP1(37-941)-10His (ERAP1) (Homo sapiens, UniProt Q9NZ08)
T1 construct: Purified ERAP1(37-941)-10His (ERAP1); 10His (C)
Assay: ERAP1 mediated hydrolysis of an amide substrate measured in a biochemical system (10-mer decapeptide substrate)
Conditions: 10-mer substrate, 23° C. for 1 h, excitation 279 nm and emission 355 nm; read-out: IC50 vs Decapeptide WRVYEKC(Dnp)ALK-acid (where Dnp is Dinitrophenyl maleimide) (10-mer)
Summary of the method: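 ERAP1(37-941)-10His preincubated with compound in 25 mM Bis-tris propane, 0.05% HPMC, pH 7.75, then reacted 1 h at 23 °C with 10-mer WRVYEKC(Dnp)ALK (100 μM solution added in equal volume). Fluorescence read at ex 279/em 355 nm; IC50 from 4-parameter fit.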

T1 sequence (Q9NZ08 37-941): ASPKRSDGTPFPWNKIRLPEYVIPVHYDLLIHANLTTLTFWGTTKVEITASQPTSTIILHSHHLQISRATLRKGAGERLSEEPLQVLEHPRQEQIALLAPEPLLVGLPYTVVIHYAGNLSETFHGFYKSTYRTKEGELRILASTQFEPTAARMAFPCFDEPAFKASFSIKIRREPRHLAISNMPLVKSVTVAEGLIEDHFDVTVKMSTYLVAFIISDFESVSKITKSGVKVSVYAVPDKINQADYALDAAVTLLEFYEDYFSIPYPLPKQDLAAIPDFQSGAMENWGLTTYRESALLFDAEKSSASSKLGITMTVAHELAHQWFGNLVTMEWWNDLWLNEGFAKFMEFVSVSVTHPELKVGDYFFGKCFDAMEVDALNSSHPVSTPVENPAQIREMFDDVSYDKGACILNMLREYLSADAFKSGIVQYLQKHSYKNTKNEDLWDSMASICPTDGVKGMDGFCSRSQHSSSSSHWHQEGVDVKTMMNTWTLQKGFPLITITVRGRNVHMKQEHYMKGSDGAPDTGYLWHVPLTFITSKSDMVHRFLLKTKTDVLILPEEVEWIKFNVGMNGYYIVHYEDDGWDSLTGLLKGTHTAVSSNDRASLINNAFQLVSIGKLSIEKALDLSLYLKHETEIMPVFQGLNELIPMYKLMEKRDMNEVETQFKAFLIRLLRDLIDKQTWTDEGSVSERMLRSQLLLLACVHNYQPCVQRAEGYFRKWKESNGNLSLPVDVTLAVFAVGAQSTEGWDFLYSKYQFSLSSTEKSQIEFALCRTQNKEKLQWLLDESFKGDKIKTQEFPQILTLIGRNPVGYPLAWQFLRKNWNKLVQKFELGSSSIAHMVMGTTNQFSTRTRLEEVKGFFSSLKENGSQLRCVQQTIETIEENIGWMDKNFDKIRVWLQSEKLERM

pIC50, > 6.30:
Cc1ccc(-c2ccc(C(F)(F)F)cc2NS(=O)(=O)c2cc(C(=O)O)ccc2C2CC2)s1 [Example 86, 4-cyclopropyl-3-(N-(2-(5-methylthiophen-2-yl)-5-(trifluoromethyl)phenyl)sulfamoyl)benzoic acid]
COc1ccc(C(=O)O)cc1S(=O)(=O)Nc1cc(C(F)(F)F)ccc1-c1ccc(Cl)s1 [Example 87, 3-(N-(2-(5-chlorothiophen-2-yl)-5-(trifluoromethyl)phenyl)sulfamoyl)-4-methoxybenzoic acid]
COc1ccc(C(=O)O)cc1S(=O)(=O)Nc1cc(S(C)(=O)=O)ccc1-c1ccc(Cl)s1 [Example 88, 3-(N-(2-(5-chlorothiophen-2-yl)-5-(methylsulfonyl)phenyl)sulfamoyl)-4-methoxybenzoic acid]
CCc1ccc(C(=O)O)cc1S(=O)(=O)Nc1cc(S(C)(=O)=O)ccc1-c1ccc(Cl)s1 [Example 89, 3-(N-(2-(5-chlorothiophen-2-yl)-5-(methylsulfonyl)phenyl)sulfamoyl)-4-ethylbenzoic acid]
COc1ccc(C(=O)O)cc1S(=O)(=O)Nc1cc(C#N)ccc1-c1ccc(Cl)s1 [Example 90, 3-(N-(2-(5-chlorothiophen-2-yl)-5-cyanophenyl)sulfamoyl)-4-methoxybenzoic acid]
CCc1ccc(C(=O)O)cc1S(=O)(=O)Nc1cc(C#N)ccc1-c1ccc(Cl)s1 [Example 91, 3-(N-(2-(5-chlorothiophen-2-yl)-5-cyanophenyl)sulfamoyl)-4-ethylbenzoic acid]
O=C(O)c1ccc(C2CC2)c(S(=O)(=O)Nc2cc(C(F)(F)F)ccc2-c2cccc(F)c2)c1 [Example 92, 4-cyclopropyl-3-(N-(3′-fluoro-4-(trifluoromethyl)-[1,1′-biphenyl]-2-yl)sulfamoyl)benzoic acid]
CS(=O)(=O)c1ccc(-c2cccc(F)c2)c(NS(=O)(=O)c2cc(C(=O)O)ccc2C2CC2)c1 [Example 93, 4-cyclopropyl-3-(N-(3′-fluoro-4-(methylsulfonyl)-[1,1′-biphenyl]-2-yl)sulfamoyl)benzoic acid]
N#Cc1ccc(-c2cccc(F)c2)c(NS(=O)(=O)c2cc(C(=O)O)ccc2C2CC2)c1 [Example 94, 3-(N-(4-cyano-3′-fluoro-[1,1-biphenyl]-2-yl)sulfamoyl)-4-cyclopropylbenzoic acid]
Cc1ccc(-c2ccc(C#N)cc2NS(=O)(=O)c2cc(C(=O)O)ccc2C2CC2)s1 [Example 95, 3-(N-(5-cyano-2-(5-methylthiophen-2-yl)phenyl)sulfamoyl)-4-cyclopropylbenzoic acid]
N#Cc1ccc(-c2ccccc2)c(NS(=O)(=O)c2cc(C(=O)O)ccc2C2CC2)c1 [Example 96, 3-(N-(4-cyano-[1,1′-biphenyl]-2-yl)sulfamoyl)-4-cyclopropylbenzoic acid]
N#Cc1ccc(-c2cccnc2)c(NS(=O)(=O)c2cc(C(=O)O)ccc2C2CC2)c1 [Example 97, 3-(N-(5-cyano-2-(pyridin-3-yl)phenyl)sulfamoyl)-4-cyclopropylbenzoic acid]
O=C(O)c1ccc(C2CC2)c(S(=O)(=O)Nc2cc(C(F)(F)F)ccc2-c2cccnc2)c1 [Example 98, 4-cyclopropyl-3-(N-(2-(pyridin-3-yl)-5-(trifluoromethyl)phenyl)sulfamoyl)benzoic acid]
O=C(O)c1ccc(C2CC2)c(S(=O)(=O)Nc2cc(C(F)(F)F)ccc2-n2cccc2)c1 [Example 99, 3-(N-(2-pyrrol-1-yl-5-(trifluoromethyl)phenyl)sulfamoyl)-4-cyclopropylbenzoic acid]
COc1ccc(C(=O)O)cc1S(=O)(=O)Nc1cc(C#N)ccc1-c1ccc(F)s1 [Example 100, 3-(N-(5-cyano-2-(5-fluorothiophen-2-yl)phenyl)sulfamoyl)-4-methoxybenzoic acid]
CCc1ccc(C(=O)O)cc1S(=O)(=O)Nc1cc(C#N)ccc1-c1ccc(F)s1 [Example 101, 3-(N-(5-cyano-2-(5-fluorothiophen-2-yl)phenyl)sulfamoyl)-4-ethylbenzoic acid]
N#Cc1ccc(-c2ccc(F)s2)c(NS(=O)(=O)c2cc(C(=O)O)ccc2C2CC2)c1 [Example 102, 3-(N-(5-cyano-2-(5-fluorothiophen-2-yl)phenyl)sulfamoyl)-4-cyclopropylbenzoic acid]
Cc1ccc(-c2ccc(S(C)(=O)=O)cc2NS(=O)(=O)c2cc(C(=O)O)ccc2C2CC2)s1 [Example 103, 4-cyclopropyl-3-(N-(5-(methylsulfonyl)-2-(5-methylthiophen-2-yl)phenyl)sulfamoyl)benzoic acid]
CCc1ccc(C(=O)O)cc1S(=O)(=O)Nc1cc(C(N)=O)ccc1-c1ccccn1 [Example 104, 3-(N-(5-carbamoyl-2-(pyridin-2-yl)phenyl)sulfamoyl)-4-ethylbenzoic acid]
COc1ccc(C(=O)O)cc1S(=O)(=O)Nc1cc(S(C)(=O)=O)ccc1-c1ccc(F)s1 [Example 105, 3-(N-(2-(5-fluorothiophen-2-yl)-5-(methylsulfonyl)phenyl)sulfamoyl)-4-methoxybenzoic acid]
CCc1ccc(C(=O)O)cc1S(=O)(=O)Nc1cc(S(C)(=O)=O)ccc1-c1ccc(F)s1 [Example 106, 4-ethyl-3-(N-(2-(5-fluorothiophen-2-yl)-5-(methylsulfonyl)phenyl)sulfamoyl)benzoic acid]
CCc1ccc(C(=O)O)cc1S(=O)(=O)Nc1cc(C#N)ccc1-n1cccc1 [Example 107, 3-(N-(5-cyano-2-(pyrrol-1-yl)phenyl)sulfamoyl)-4-ethylbenzoic acid]
CCc1ccc(C(=O)O)cc1S(=O)(=O)Nc1cc(S(C)(=O)=O)ccc1-n1cccc1 [Example 108, 4-ethyl-3-(N-(5-(methylsulfonyl)-2-(pyrrol-1-yl)phenyl)sulfamoyl)benzoic acid]
N#Cc1ccc(-n2cccc2)c(NS(=O)(=O)c2cc(C(=O)O)ccc2C2CC2)c1 [Example 109, 3-(N-(5-cyano-2-(pyrrol-1-yl)phenyl)sulfamoyl)-4-cyclopropylbenzoic acid]
CS(=O)(=O)c1ccc(-n2cccc2)c(NS(=O)(=O)c2cc(C(=O)O)ccc2C2CC2)c1 [Example 110, 4-cyclopropyl-3-(N-(5-(methylsulfonyl)-2-(pyrrol-1-yl)phenyl)sulfamoyl) benzoic acid]
N#Cc1ccc(-c2ccc(Cl)s2)c(NS(=O)(=O)c2cc(C(=O)O)ccc2C2CC2)c1 [Example 111, 3-(N-(2-(5-chlorothiophen-2-yl)-5-cyanophenyl)sulfamoyl)-4-cyclopropylbenzoic acid]
COc1ccc(C(=O)O)cc1S(=O)(=O)Nc1cc(C#N)c(F)cc1-c1cccc(F)c1 [Example 112, 3-(N-(4-cyano-3′,5-difluoro-[1,1′-biphenyl]-2-yl)sulfamoyl)-4-methoxybenzoic acid]
O=C(O)c1ccc(C2CC2)c(S(=O)(=O)Nc2cc(C(F)(F)F)ccc2-c2ccc(Cl)s2)c1 [Example 113, 3-(N-(2-(5-chlorothiophen-2-yl)-5-(trifluoromethyl)phenyl)sulfamoyl)-4-cyclopropylbenzoic acid]
O=C(O)c1ccc(C2CC2)c(S(=O)(=O)Nc2cc(C(F)(F)F)ccc2-c2ccc(C3CC3)s2)c1 [Example 114, 4-cyclopropyl-3-(N-(2-(5-cyclopropylthiophen-2-yl)-5-(trifluoromethyl)phenyl)sulfamoyl)benzoic acid]
CS(=O)(=O)c1ccc(-c2ccc(C3CC3)s2)c(NS(=O)(=O)c2cc(C(=O)O)ccc2C2CC2)c1 [Example 115, 4-cyclopropyl-3-(N-(2-(5-cyclopropylthiophen-2-yl)-5-(methylsulfonyl)phenyl)sulfamoyl)benzoic acid]
CS(=O)(=O)c1ccc(-c2ccc(F)s2)c(NS(=O)(=O)c2cc(C(=O)O)ccc2C2CC2)c1 [Example 116, 4-cyclopropyl-3-(N-(2-(5-fluorothiophen-2-yl)-5-(methylsulfonyl)-phenyl)sulfamoyl)benzoic acid]
COc1ccc(C(=O)O)cc1S(=O)(=O)Nc1cc(C(F)(F)F)ccc1-c1ccc(F)s1 [Example 117, 3-(N-(2-(5-fluorothiophen-2-yl)-5-(trifluoromethyl)phenyl)sulfamoyl)-4-methoxybenzoic acid]
CCc1ccc(C(=O)O)cc1S(=O)(=O)Nc1cc(C#N)ccc1-c1ccc(C#N)s1 [Example 118, 3-(N-(5-cyano-2-(5-cyanothiophen-2-yl)phenyl)sulfamoyl)-4-ethylbenzoic acid]
COc1ccc(C(=O)O)cc1S(=O)(=O)Nc1cc(C#N)ccc1-c1ccc(C#N)s1 [Example 119, 3-(N-(5-cyano-2-(5-cyanothiophen-2-yl)phenyl)sulfamoyl)-4-methoxybenzoic acid]
CCc1ccc(C(=O)O)cc1S(=O)(=O)Nc1cc(S(C)(=O)=O)ccc1-c1ccc(C#N)s1 [Example 120, 3-(N-(2-(5-cyanothiophen-2-yl)-5-(methylsulfonyl)phenyl)sulfamoyl)-4-ethylbenzoic acid]
COc1ccc(C(=O)O)cc1S(=O)(=O)Nc1cc(C#N)ccc1-n1cccc1 [Example 121, 3-(N-(5-cyano-2-(pyrrol-1-yl)phenyl)sulfamoyl)-4-methoxybenzoic acid]
